Here are results for 3 molecules from US5430055A, “Inhibitor of squalene synthase” (Pfizer Inc., priority 1994, dated 1995).

The subject of assay [1] is Cryptococcus bhutanensis, Resistant Strain. The assay is described as follows: Antifungal bioassay, zone of inhibition, resistant strain. Type of assay: cell-based. Particulars: yeast nitrogen based medium, 28° C., 2 to 3 days. How it is done:
(§1) The antifungal activity of the compound I was determined with a bioassay such as Cryptococcus bhutanensis FD 23971. A ten-day-old slant of C. bhutanensis was washed with 10 ml of sterile water, and 300 μl of the suspension was mixed with an assay medium consisting of 0.67% of yeast nitrogen based medium (DIFCO) and 0.5% of glucose. 150 ml of the warm medium was poured onto a sterile, polystyrene bioassay plate (245×245×20 mm) and was left to solidify. The solid medium was bored into well-separated wells with a size #2 cork bore, and 25 μl of whole broth or extracted broth was spotted into the wells. The plates were incubated at 28° C. for 2 to 3 days and the zone of inhibition was measured.
(§2) The zones of inhibition against Cryptococcus bhutanensis on a yeast nitrogen based medium are as follows: […]

Assay [2] has as its system Cryptococcus bhutanensis, Sensitive Strain (against zaragozic Acid A). The assay is described as follows: Antifungal bioassay, zone of inhibition, sensitive strain (against zaragozic acid A). Type of assay: cell-based. The following applies: yeast nitrogen based medium, 28° C., 2 to 3 days. How it is done:
as §1, §2

Assay [3] addresses T1, squalene synthase (Homo sapiens, UniProt P37268).
T1 sequence (P37268 1-417): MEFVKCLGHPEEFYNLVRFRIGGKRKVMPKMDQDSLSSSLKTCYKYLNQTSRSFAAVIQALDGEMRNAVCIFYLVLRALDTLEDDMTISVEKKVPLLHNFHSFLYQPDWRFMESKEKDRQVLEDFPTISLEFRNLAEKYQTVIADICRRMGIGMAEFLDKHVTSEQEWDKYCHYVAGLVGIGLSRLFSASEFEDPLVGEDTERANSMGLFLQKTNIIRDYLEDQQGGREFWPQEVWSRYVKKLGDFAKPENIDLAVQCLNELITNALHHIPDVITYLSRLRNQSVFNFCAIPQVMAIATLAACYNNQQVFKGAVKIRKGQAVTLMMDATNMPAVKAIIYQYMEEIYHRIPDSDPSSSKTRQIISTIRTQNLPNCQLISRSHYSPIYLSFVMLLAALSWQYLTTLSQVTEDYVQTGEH
Description: Squalene Synthase Inhibition Assay. Particulars: microsomal protein, 30 minutes at 37° C., pH 7.4. Type of assay: biochemical.
Description: The squalene synthase inhibition assay was conducted in a final volume of 75 μl. The reaction is initiated by addition of 25 μl of the diluted and deoxygenated microsomal suspension to a mixture of 47 μl of the deoxygenated SQS substrate/cofactor solution and 3 μl of the deoxygenated test compound solution as set out in Table 6.
Glucose-6-phosphate 0.95 U
The microsomal suspensions were diluted to a microsomal protein concentration of 1 mg/ml and deoxygenated by repetitive cycles of evacuation and airation with nitrogen. […] Control incubations received 3 μl of deoxygenated dimethyl sulfoxide and enzyme blanks received 25 μl of deoxygenated PMED buffer (50 mM K2 PO4 (pH=7.4), 5 mM MgCl2, 1 mM EDTA, 5 mM dithiothreitol). Assay tubes were immediately flushed with nitrogen and capped, and the solution was vortexed gently. Following 30 minutes of incubation at 37° C., reactions were terminated by addition of 40 μl of 10M sodium hydroxide. […] The region of the chromatogram from 1 cm below the squalene band (visualized with iodine vapors) to the top of the chromatogram was removed and counted in a liquid scintillation counter using Aquasol-2 liquid scintillation fluid. […]
SQS activity (overall reaction) is calculated as pmoles of [3H] squalene formed from [1-3H] […]

Assay [4] deals with T2, ras farnesyltransferase (Rattus norvegicus, UniProt Q02293+Q04631).
T2 construct: diluted rat brain cytosol; from tissue; host or cells: rat brain cytosol
The assay is described as follows: ras Farnesyltransferase inhibition assay. Type of assay: biochemical. Particulars: rat brain cytosol, H-ras 4 μM, 30 minutes at 37° C., pH 7.5. How it is done: The ras farnesyltransferase inhibition assay was conducted in a final volume of 25 μL. The reaction is initiated by addition of 10 μpL of the diluted rat brain cytosol to a mixture of 15 μL of the ras farnesyltransferase substrate/cofactor solution and 0.3 μL of test compound solution as set out in Table 7.
The rat brain cytosols were diluted to a protein concentration of 3.0 mg/mL. Test compound solutions were prepared in dimethyl sulfoxide at concentrations of 25 mM (final assay concentration 300 μM). Control incubations received 0.3 μL of dimethyl sulfoxide and enzyme blanks received 10 μL rat brain homogenization buffer (50 mM tris HCl (pH=7.5), 5 mM dithiothreitol, 0.2M KCl, 20 μM ZnCl2). After a 30 minute incubation at 37° C., the reaction was terminated by addition of 200 μL of 10% (v/v) HCl in EtOH. After an additional 15 minute incubation at 37° C., 300 μl absolute EtOH were added and the entire sample was applied to a filtration well of a Packard Unifilter-GF/B 96-well plate under vacuum. After complete sample addition, the filter well was washed four times with 500 μl each of absolute ethanol and allowed to dry. The bottom of the Unifilter-GF/B plate was then sealed, 50 μl Microscint-20 liquid scintillation fluid were added to each well and the plate was heat-sealed and then counted in a Packard Top-Count liquid scintillation counter.
ras Farnesyltransferase Assay […]

In assay [5] the test system is ras protein farnesylation. Particulars: background statement; cited from earlier work.

pIC50: −log10 of the molar value.

One may read the zone of inhibition as the extent of the growth-free halo in a diffusion test. Low values mean a weaker effect on the plate, high ones a stronger effect on the plate. On to `C/C=C/CCCCC[C@@H]1C=C2[C@]3(CC(=O)O)CC4=C(C(=O)OC4=O)[C@@H]4[C@H]1C[C@H](C(=O)CC/C=C/C)O[C@]24OC3=O` [CP-263,114], for which the zone of inhibition is recorded as 45 mm in assay [1] and 42 mm in assay [2].
By pIC50 is commonly meant −log10 of the IC50, conventionally taken in molar units. High values mean a small IC50, low ones a large IC50. As to `C/C=C/CCCCC[C@@H]1C=C2[C@]3(CC(=O)O)CC4=C(C(=O)OC4=O)[C@H]([C@H]1C[C@@H](O)C(=O)CC/C=C/C)[C@@]2(O)OC3=O` [Fraction 5 compound], the zone of inhibition in assay [1] was found to be 22 mm; in assay [2], 15 mm. In addition, the results for the pIC50 in assay [3] and in assay [4] were 4.32 and 5.22, respectively.
Consider `C=C(CC[C@]12O[C@H](C(=O)O)[C@@](O)(C(=O)O)[C@](C(=O)O)(O1)[C@H](OC(=O)/C=C/[C@@H](C)C[C@@H](C)CC)[C@H]2O)[C@@H](OC(C)=O)[C@H](C)Cc1ccccc1` [Zaragozic acid A, reference compound], for which the “inhibition of farnesylation of ras protein” value in assay [5] is “inhibit farnesylation of ras protein”. In addition, the pIC50 in assay [4] was 5.52.
